Measured values from PubChem BioAssay (NCI).
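How tested: cells in 96-well plates exposed to compound for 48 hours at five concentrations. Here, GI50 denotes the concentration required for 50% inhibition of growth. TGI denotes the concentration required for complete inhibition of growth.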

Key:
Test in all cases: inhibition of tumour cell growth, NCI panel, 48 h; in the data active = GI50 below about 0.43 µM; inactive = the rest
NCI/ADR-RES ovarian = test system: NCI/ADR-RES ovarian
K-562 leukemia = test system: K-562 leukemia
TK-10 renal = test system: TK-10 renal
OVCAR-4 ovarian = test system: OVCAR-4 ovarian
OVCAR-3 ovarian = test system: OVCAR-3 ovarian
T-47D breast = test system: T-47D breast
SK-MEL-5 melanoma = test system: SK-MEL-5 melanoma
M14 melanoma = test system: M14 melanoma
HOP-62 NSCLC = test system: HOP-62 NSCLC
RXF 393 renal = test system: RXF 393 renal

COc1cc2c(cc1OC)[C@H](C)N1CCc3cc(OC)c(OC)cc3[C@@H]1C2
> 100 µM: TGI (NCI/ADR-RES ovarian) | TGI (K-562 leukemia) | TGI (TK-10 renal) | TGI (OVCAR-4 ovarian) | TGI (OVCAR-3 ovarian) | TGI (T-47D breast) | TGI (SK-MEL-5 melanoma)

Cc1c(Cl)cccc1C(=O)Nc1nc2c(s1)CN(C(=O)c1ccc(C(F)(F)F)cc1)CC2
active: GI50 (M14 melanoma) 0.0483 µM | GI50 (NCI/ADR-RES ovarian) 0.0418 µM | GI50 (K-562 leukemia) 0.0261 µM | GI50 (OVCAR-3 ovarian) 0.0583 µM | GI50 (HOP-62 NSCLC) 0.173 µM | GI50 (T-47D breast) 0.199 µM | GI50 (SK-MEL-5 melanoma) 0.175 µM
6.01 µM: TGI (SK-MEL-5 melanoma)
28.8 µM: TGI (T-47D breast)
inactive: GI50 (TK-10 renal) 0.934 µM | GI50 (OVCAR-4 ovarian) 0.663 µM
0.347 µM: TGI (OVCAR-3 ovarian)
> 50 µM: TGI (K-562 leukemia) | TGI (TK-10 renal) | TGI (OVCAR-4 ovarian) | TGI (HOP-62 NSCLC)
38.4 µM: TGI (M14 melanoma)
2.31 µM: TGI (NCI/ADR-RES ovarian)

CCCCCCCCCCCCCCCC(=O)OCC1OC(n2cc(F)c(=O)[nH]c2=O)C(N)C(O)C1O (centres undefined)
33.1 µM: TGI (SK-MEL-5 melanoma)
9.72 µM: TGI (OVCAR-3 ovarian)
31.2 µM: TGI (OVCAR-4 ovarian)
37.4 µM: TGI (HOP-62 NSCLC)
46.5 µM: TGI (TK-10 renal)
32.8 µM: TGI (M14 melanoma) | TGI (K-562 leukemia)

O=C(c1ccc(Cl)cc1Cl)C1[C@H]2C(=O)N(c3ccc(Cc4ccc(N5C(=O)[C@@H]6ON(c7ccccc7)C(C(=O)c7ccc(Cl)cc7Cl)[C@@H]6C5=O)cc4)cc3)C(=O)[C@H]2ON1c1ccccc1 (some centres undefined)
> 50 µM: TGI (RXF 393 renal) | TGI (M14 melanoma) | TGI (K-562 leukemia) | TGI (TK-10 renal) | TGI (OVCAR-4 ovarian) | TGI (OVCAR-3 ovarian) | TGI (HOP-62 NSCLC) | TGI (SK-MEL-5 melanoma)

OC1(C23CC4CC(CC(C4)C2)C3)CSCC1(O)C12CC3CC(CC(C3)C1)C2 (centres undefined)
> 100 µM: TGI (M14 melanoma) | TGI (K-562 leukemia) | TGI (TK-10 renal) | TGI (OVCAR-4 ovarian) | TGI (OVCAR-3 ovarian) | TGI (HOP-62 NSCLC) | TGI (SK-MEL-5 melanoma)

CCOC(C[C@H](O[Si](C)(C)C(C)(C)C)[C@H]1COC(=S)S1)OCC
> 100 µM: TGI (M14 melanoma) | TGI (K-562 leukemia) | TGI (TK-10 renal) | TGI (OVCAR-3 ovarian) | TGI (HOP-62 NSCLC) | TGI (SK-MEL-5 melanoma)

CCCCOC(=O)N1CCN(/[N+]([O-])=N/Oc2ccc([N+](=O)[O-])cc2[N+](=O)[O-])CC1
> 100 µM: TGI (NCI/ADR-RES ovarian) | TGI (K-562 leukemia)
inactive: GI50 (RXF 393 renal) 17.6 µM | GI50 (NCI/ADR-RES ovarian) 3.43 µM | GI50 (K-562 leukemia) 5.97 µM | GI50 (TK-10 renal) 10 µM | GI50 (OVCAR-3 ovarian) 1.68 µM | GI50 (HOP-62 NSCLC) 6.28 µM | GI50 (SK-MEL-5 melanoma) 4.91 µM
19.8 µM: TGI (SK-MEL-5 melanoma)
23.2 µM: TGI (HOP-62 NSCLC)
21.8 µM: TGI (TK-10 renal)
40.4 µM: TGI (RXF 393 renal)
4.12 µM: TGI (OVCAR-3 ovarian)

Cc1ccccc1C1OC(=O)c2ccc3ccccc3c21 (centres undefined)
6.95 µM: TGI (RXF 393 renal)
> 31.6 µM: TGI (TK-10 renal)
16.2 µM: TGI (OVCAR-3 ovarian)
10.9 µM: TGI (M14 melanoma)
19.5 µM: TGI (K-562 leukemia)
5.35 µM: TGI (HOP-62 NSCLC)
19.2 µM: TGI (OVCAR-4 ovarian)
13 µM: TGI (SK-MEL-5 melanoma)

CC(=O)[CH-]C(=O)c1ccccc1.CC(=O)[CH-]C(=O)c1ccccc1.CC[O-].CC[O-].[Hf+4]
> 100 µM: TGI (RXF 393 renal) | TGI (M14 melanoma) | TGI (K-562 leukemia) | TGI (OVCAR-4 ovarian) | TGI (OVCAR-3 ovarian) | TGI (HOP-62 NSCLC) | TGI (SK-MEL-5 melanoma)
inactive: GI50 (RXF 393 renal) > 100 µM | GI50 (M14 melanoma) > 100 µM | GI50 (K-562 leukemia) > 100 µM | GI50 (OVCAR-4 ovarian) > 100 µM | GI50 (OVCAR-3 ovarian) > 100 µM | GI50 (HOP-62 NSCLC) > 100 µM | GI50 (SK-MEL-5 melanoma) > 100 µM

CCCCCCC[CH2][Sn]([CH2]CCCCCCC)([O]c1cccc2cccnc12)[O]c1cccc2cccnc12
inactive: GI50 (RXF 393 renal) 2.06 µM | GI50 (M14 melanoma) 1.33 µM | GI50 (K-562 leukemia) 0.586 µM | GI50 (TK-10 renal) 3.85 µM | GI50 (OVCAR-3 ovarian) 1.85 µM | GI50 (HOP-62 NSCLC) 2.11 µM | GI50 (SK-MEL-5 melanoma) 1.65 µM
3.86 µM: TGI (K-562 leukemia)
3.67 µM: TGI (HOP-62 NSCLC)
8.07 µM: TGI (RXF 393 renal)
3.17 µM: TGI (M14 melanoma)
3.21 µM: TGI (SK-MEL-5 melanoma)
13.7 µM: TGI (TK-10 renal)
6.62 µM: TGI (OVCAR-3 ovarian)

OC(CCNC12CC3CC(CC(C3)C1)C2)c1ccccc1 (centres undefined)
> 100 µM: TGI (RXF 393 renal) | TGI (M14 melanoma) | TGI (TK-10 renal) | TGI (OVCAR-4 ovarian) | TGI (OVCAR-3 ovarian) | TGI (HOP-62 NSCLC) | TGI (SK-MEL-5 melanoma)

CC1(C)C2CCC13C(=O)C1OC3(C2)C2C(=O)c3ccccc3C(=O)C12 (centres undefined)
> 100 µM: TGI (RXF 393 renal) | TGI (M14 melanoma) | TGI (NCI/ADR-RES ovarian) | TGI (K-562 leukemia) | TGI (TK-10 renal) | TGI (HOP-62 NSCLC) | TGI (T-47D breast)
inactive: GI50 (RXF 393 renal) > 100 µM | GI50 (M14 melanoma) > 100 µM | GI50 (NCI/ADR-RES ovarian) 12.1 µM | GI50 (K-562 leukemia) > 100 µM | GI50 (TK-10 renal) > 100 µM | GI50 (HOP-62 NSCLC) > 100 µM | GI50 (T-47D breast) > 100 µM

CN(C(=O)C12C3C4C1C1C2C3C41C(N)=O)C(C)(C)C (centres undefined)
> 100 µM: TGI (M14 melanoma) | TGI (K-562 leukemia) | TGI (TK-10 renal) | TGI (OVCAR-4 ovarian) | TGI (OVCAR-3 ovarian) | TGI (SK-MEL-5 melanoma)

COc1c(O)c2c3c(cc(C)cc3c1C(C)C)OC2
> 100 µM: TGI (RXF 393 renal) | TGI (M14 melanoma) | TGI (K-562 leukemia) | TGI (TK-10 renal) | TGI (OVCAR-4 ovarian) | TGI (OVCAR-3 ovarian) | TGI (SK-MEL-5 melanoma)

Cc1ccc2c(c1)-c1c3c(nn1-c1ccccc1)-c1ccccc1SC3O2 (centres undefined)
> 100 µM: TGI (RXF 393 renal) | TGI (K-562 leukemia) | TGI (TK-10 renal) | TGI (OVCAR-3 ovarian) | TGI (HOP-62 NSCLC)

NNC(=O)C1CCC(=O)N1S(=O)(=O)c1ccccc1 (centres undefined)
> 100 µM: TGI (RXF 393 renal) | TGI (M14 melanoma) | TGI (K-562 leukemia) | TGI (TK-10 renal) | TGI (OVCAR-4 ovarian) | TGI (OVCAR-3 ovarian) | TGI (HOP-62 NSCLC) | TGI (SK-MEL-5 melanoma)

COc1cc(C(=O)c2c(-c3ccccc3)oc3c(OC)cccc23)cc(OC)c1OC
47 µM: TGI (HOP-62 NSCLC)
inactive: GI50 (TK-10 renal) 10 µM | GI50 (T-47D breast) 31.8 µM
0.363 µM: TGI (OVCAR-3 ovarian)
0.733 µM: TGI (SK-MEL-5 melanoma)
> 100 µM: TGI (K-562 leukemia) | TGI (OVCAR-4 ovarian) | TGI (T-47D breast)
> 62.2 µM: TGI (TK-10 renal)
4.69 µM: TGI (RXF 393 renal)
active: GI50 (RXF 393 renal) 0.0414 µM | GI50 (NCI/ADR-RES ovarian) 0.0409 µM | GI50 (K-562 leukemia) 0.0368 µM | GI50 (OVCAR-3 ovarian) 0.0346 µM | GI50 (HOP-62 NSCLC) 0.071 µM | GI50 (SK-MEL-5 melanoma) 0.157 µM

CCOc1cc2c(C(=O)CC)c(O)ccc2o1
> 95.7 µM: TGI (RXF 393 renal)
> 56.8 µM: TGI (OVCAR-4 ovarian)
> 63.3 µM: TGI (SK-MEL-5 melanoma)
> 100 µM: TGI (M14 melanoma) | TGI (TK-10 renal) | TGI (OVCAR-3 ovarian) | TGI (HOP-62 NSCLC)
> 81.7 µM: TGI (K-562 leukemia)

c1cncc(C2N3CCCCC3[C@@H]3c4[nH]c5ccccc5c4CCN23)c1 (some centres undefined)
> 100 µM: TGI (RXF 393 renal) | TGI (M14 melanoma) | TGI (K-562 leukemia) | TGI (TK-10 renal) | TGI (OVCAR-4 ovarian) | TGI (OVCAR-3 ovarian) | TGI (HOP-62 NSCLC) | TGI (SK-MEL-5 melanoma)

CCOC(=O)CC[C@H](NC(=O)c1nc[nH]c1[N+](=O)[O-])C(=O)OCC
> 100 µM: TGI (RXF 393 renal) | TGI (M14 melanoma) | TGI (K-562 leukemia) | TGI (TK-10 renal) | TGI (OVCAR-4 ovarian) | TGI (OVCAR-3 ovarian) | TGI (HOP-62 NSCLC)

O=C1CCCCC1S(=O)(=O)c1ccccc1 (centres undefined)
> 100 µM: TGI (RXF 393 renal) | TGI (M14 melanoma) | TGI (K-562 leukemia) | TGI (TK-10 renal) | TGI (OVCAR-4 ovarian) | TGI (OVCAR-3 ovarian) | TGI (HOP-62 NSCLC) | TGI (SK-MEL-5 melanoma)

COc1cc2ccnc3c2c(c1OC)-c1coc(SC)c1-3
52.1 µM: TGI (RXF 393 renal)
> 100 µM: TGI (M14 melanoma) | TGI (K-562 leukemia) | TGI (TK-10 renal) | TGI (OVCAR-4 ovarian) | TGI (HOP-62 NSCLC) | TGI (SK-MEL-5 melanoma)
